Experiments:
FLAG-Tsa1 = target: T1, FLAG-Tsa1 (Saccharomyces cerevisiae, UniProt P34760); test: cross-linking in yeast cells, anti-FLAG immunoblot; assay type: cell-based; conditions: covalent; 1 h
T1 sequence (P34760 2-196): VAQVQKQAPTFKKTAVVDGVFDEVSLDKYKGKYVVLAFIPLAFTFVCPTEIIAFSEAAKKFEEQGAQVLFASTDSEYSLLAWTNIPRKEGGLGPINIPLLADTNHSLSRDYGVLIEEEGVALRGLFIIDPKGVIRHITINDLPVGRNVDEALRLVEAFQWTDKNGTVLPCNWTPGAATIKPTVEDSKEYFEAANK

FLAG-Trx2 = target: T2, FLAG-Trx2 (Saccharomyces cerevisiae, UniProt P22803); test: cross-linking in yeast cells, anti-FLAG immunoblot; assay type: cell-based; conditions: covalent; 1 h
T2 sequence (P22803 2-104): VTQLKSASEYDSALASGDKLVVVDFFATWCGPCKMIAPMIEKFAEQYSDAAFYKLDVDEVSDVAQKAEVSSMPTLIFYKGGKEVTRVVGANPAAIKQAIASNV

Row | Compound | cross-linking in yeast cells, anti-FLAG immunoblot (FLAG-Tsa1) | cross-linking in yeast cells, anti-FLAG immunoblot (FLAG-Trx2)
1 | CCOC(=O)C#CC(=O)OCC [diethyl acetylenedicarboxylate] | each of these bifunctional electrophiles promotes cross-linking of Trx2 and Tsa1 in yeast | each of these bifunctional electrophiles promotes cross-linking of Trx2 and Tsa1 in yeast
2 | C1OC1C1CO1 (stereo not shown) [1,2,3,4-diepoxybutane] | each of these bifunctional electrophiles promotes cross-linking of Trx2 and Tsa1 in yeast | each of these bifunctional electrophiles promotes cross-linking of Trx2 and Tsa1 in yeast

Reference: PMC3637938 (Chemical research in toxicology, 2013)
